Source: patent US12544450B2, “Medical uses of thiol-functionalized polyglycerol derivatives” (FREIE UNIVERSITÄT BERLIN, priority 2019, dated 2026)
“Also recorded” adds a separate entry of the source.

Tested on: lung mucus collected from patients with cystic fibrosis
Assay: Macrorheology of cystic fibrosis lung mucus after treatment with reducing agents
Parameters: species or system human
Details: 30 min at 37° C.; for Viscosity of CF mucus after treatment: frequency sweep at 2% strain, FIG. 8
Protocol: In order to determine the mucolytic potential of thiol-functionalized polyglycerol derivatives the rheological properties of lung mucus, which was collected from patients with cystic fibrosis, were determined before and after treatment with different reducing or control agents. In addition, mucus from a healthy donor was used as control. Rheological measurements can be generally used to determine both elastic and viscous material components. Clinical samples were obtained freshly from cystic fibrosis (CF) patients at Charité Berlin and put directly on ice after collection. Then, the samples were mixed with a protease inhibitor cocktail (Roche) and aliquoted in 150 μl portions. The samples were then treated with different concentrations of freshly prepared reducing agents for 30 min at 37° C. Control samples were kept on ice throughout the incubation time or treated with phosphate-buffered saline (PBS) and incubated for 30 min at 37° C. After the incubation time all samples were kept on ice until use for the macrorheological studies. Here, a Kinexus instrument (Malvern) with a cone-and-plate setup was used. The cone geometry was 20 mm diameter and a […] angle. Each sample was run with an amplitude sweep mode at an oscillatory frequency of 1 Hz to determine the linear viscoelastic regime. In order to obtain viscosity parameters, measurements were repeated at 2% stain in a frequency sweep mode.

Compound | Elastic modulus (G') of CF mucus after treatment (amplitude sweep at 1 Hz, FIG. 7) | Viscosity of CF mucus after treatment
CC(=O)N[C@@H](CS)C(=O)O [NAC, N-acetylcysteine] | comparably slight reduction of the elastic modulus like a treatment with physiological phosphate buffer (PBS) | does not show any enhanced mucolytic activity than PBS
O[C@H](CS)[C@H](O)CS (racemic) [DTT, Dithiothreitol] |  | reduces the viscosity of CF mucus to level significantly below the viscosity level of mucus from healthy individuals; also recorded: completely destroys the viscosity properties of mucus
